Reference: US5691381A, “Hydroxamic and carbocyclic acids as metalloprotease inhibitors” (The DuPont Merck Pharmaceutical Company, priority 1996, dated 1997)

Test system: cartilage degradation (proteoglycan content in the synovial fluid)
Experiment: Acute Cartilage Degradation Rat Model
Type: in vivo
Conditions: rats, after compound administration
Excerpt: An in vivo model of acute cartilage degradation in rats has been characterized as a method to determine the proteoglycan content in the synovial fluid after the induction of cartilage degradation.

In the case of `COc1ccc2c(c1)c(CC(=O)O)c(C)n2C(=O)c1ccc(Cl)cc1` [Indomethacin], the “inhibition of cartilage degradation, as measured by increased proteoglycan content in the synovial fluid” value is reported as “inactive”.
